Source: ChEMBL document CHEMBL4828778, “Novel Compounds as PHD Inhibitors for Treating Heart, Lung, Liver, and Kidney Diseases” (ACS Med Chem Lett, 2021)
pIC50: −log10 of the molar value.

target: Prolyl hydroxylase EGLN3 (Homo sapiens, UniProt Q9H6Z9); assay: Inhibition of recombinant full length human N-terminal 6His-tagged PHD3 expressed Escherichia coli using HIF1/C35 complex as substrate preincubated for 30 mins followed by substrate addition measured after 10 mins by TR-FRET assay
Sequence (Q9H6Z9 whole entry): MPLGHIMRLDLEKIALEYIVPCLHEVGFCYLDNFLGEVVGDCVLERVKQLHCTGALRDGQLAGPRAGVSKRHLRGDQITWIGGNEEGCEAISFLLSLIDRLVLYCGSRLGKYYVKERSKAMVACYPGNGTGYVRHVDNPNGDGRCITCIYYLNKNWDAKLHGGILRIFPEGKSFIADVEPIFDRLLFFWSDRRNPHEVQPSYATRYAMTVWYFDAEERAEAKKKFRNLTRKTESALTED

pIC50, > 7.00:
N#Cc1ccc(-c2cnn(-c3ccc(-c4nccs4)cn3)c2O)cc1
CCS(=O)(=O)Nc1ccc(-n2ncc(-c3ccc(C#N)cc3)c2O)nc1
N#Cc1ccc(-c2cnn(-c3ccc(N4CCCC4=O)cn3)c2O)cc1
CS(=O)(=O)c1ccc(-n2ncc(-c3ccc(C#N)cc3)c2O)nc1
CC(=O)c1ccc(-n2ncc(-c3ccc(C#N)cc3)c2O)nc1
CCC(=O)Nc1ccc(-n2ncc(-c3ccc(C#N)cc3)c2O)nc1

target: Egl nine homolog 1 (Homo sapiens, UniProt Q9GZT9); assay: Inhibition of full length human N-terminal His-tagged/TEV cleavage fused PHD2 expressed in baculovirus infected insect cells using HIF1/C35 complex as substrate preincubated for 30 mins followed by substrate addition measured after 10 mins by TR-FRET assay
Sequence (Q9GZT9 whole entry, the tested form may be a part): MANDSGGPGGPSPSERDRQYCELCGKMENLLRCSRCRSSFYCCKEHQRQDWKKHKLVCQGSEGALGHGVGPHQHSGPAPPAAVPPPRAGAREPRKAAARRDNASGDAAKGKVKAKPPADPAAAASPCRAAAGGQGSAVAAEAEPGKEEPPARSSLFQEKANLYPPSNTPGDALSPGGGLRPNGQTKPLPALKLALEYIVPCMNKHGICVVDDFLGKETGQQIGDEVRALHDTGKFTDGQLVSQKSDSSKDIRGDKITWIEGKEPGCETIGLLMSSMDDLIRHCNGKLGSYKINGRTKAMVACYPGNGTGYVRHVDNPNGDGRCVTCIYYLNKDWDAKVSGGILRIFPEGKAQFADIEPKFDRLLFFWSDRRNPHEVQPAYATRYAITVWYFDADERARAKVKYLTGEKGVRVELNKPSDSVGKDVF

pIC50, > 7.00:
N#Cc1ccc(-c2cnn(-c3ccc(-c4nccs4)cn3)c2O)cc1
CCS(=O)(=O)Nc1ccc(-n2ncc(-c3ccc(C#N)cc3)c2O)nc1
N#Cc1ccc(-c2cnn(-c3ccc(N4CCCC4=O)cn3)c2O)cc1
CS(=O)(=O)c1ccc(-n2ncc(-c3ccc(C#N)cc3)c2O)nc1
CC(=O)c1ccc(-n2ncc(-c3ccc(C#N)cc3)c2O)nc1
CCC(=O)Nc1ccc(-n2ncc(-c3ccc(C#N)cc3)c2O)nc1

target: Prolyl hydroxylase EGLN2 (Homo sapiens, UniProt Q96KS0); assay: Inhibition of recombinant full length human N-terminal FLAG-tagged PHD1 expressed in baculovirus expression system using HIF1/C35 complex as substrate preincubated for 30 mins followed by substrate addition measured after 10 mins by TR-FRET assay
Sequence (Q96KS0 whole entry): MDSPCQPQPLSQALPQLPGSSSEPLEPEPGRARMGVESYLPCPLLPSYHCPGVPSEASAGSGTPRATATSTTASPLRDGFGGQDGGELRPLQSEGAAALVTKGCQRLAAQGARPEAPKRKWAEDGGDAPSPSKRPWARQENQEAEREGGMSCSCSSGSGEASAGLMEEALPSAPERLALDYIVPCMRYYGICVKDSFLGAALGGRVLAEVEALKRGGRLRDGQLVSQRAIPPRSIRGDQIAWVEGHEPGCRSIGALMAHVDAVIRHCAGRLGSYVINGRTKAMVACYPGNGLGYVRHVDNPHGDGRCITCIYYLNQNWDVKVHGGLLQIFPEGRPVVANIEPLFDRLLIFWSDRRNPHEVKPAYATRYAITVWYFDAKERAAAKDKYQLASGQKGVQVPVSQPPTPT

pIC50, > 7.00:
N#Cc1ccc(-c2cnn(-c3ccc(-c4nccs4)cn3)c2O)cc1
CCS(=O)(=O)Nc1ccc(-n2ncc(-c3ccc(C#N)cc3)c2O)nc1
N#Cc1ccc(-c2cnn(-c3ccc(N4CCCC4=O)cn3)c2O)cc1
CS(=O)(=O)c1ccc(-n2ncc(-c3ccc(C#N)cc3)c2O)nc1
CC(=O)c1ccc(-n2ncc(-c3ccc(C#N)cc3)c2O)nc1
CCC(=O)Nc1ccc(-n2ncc(-c3ccc(C#N)cc3)c2O)nc1
